Measured values taken from paper PMC12153338, “Resistance to oxyimino-cephalosporins conferred by an alternative mechanism of hydrolysis by the Acinetobacter-derived cephalosporinase-33 (ADC-33), a class C β-lactamase present in carbapenem-resistant Acinetobacter baumannii (CRAb)” (mBio, 2025).
Converted amounts (≈) assume the structure as drawn.

Tests used:
[1] = system: ADC-7 in DH10B Escherichia coli; assay: MIC by broth microdilution, ADC-7 in DH10B E. coli; format: cell-based; details: DH10B E. coli expressing ADC-7 (non-Adup) from pBCSK−, FDC in iron-depleted cation-adjusted MH broth, mode of triplicate
Procedure: (§1) Susceptibility testing to standard antibiotics was performed by broth microdilution according to 2024 Clinical and Laboratory Standards Institute (CLSI) guidelines ([38]). MICs for FDC were done in iron-depleted cation-adjusted Mueller-Hinton (MH) broth according to CLSI methods. All MICs were interpreted according to the 2024 CLSI guidelines ([38]). MICs are done in triplicate, and the mode MIC value is reported.
(§2) blaADC-7 pBCSK− was cloned and expressed in E. coli DH10B cells as previously described for MIC determinations ([3]). The pBCSK-non-inducible phagemid vector has a chloramphenicol resistance gene used to aid selection. All other blaADC variants were synthesized by GenScript according to the blaADC-7 pBCSK− strategy, cloning into the XbaI/BamHI sites of the pBCSK− vector ([5]).

[2] = system: ADC-30 in DH10B Escherichia coli; assay: MIC by broth microdilution, ADC-30 in DH10B E. coli; format: cell-based; details: DH10B E. coli expressing ADC-30 (non-Adup) from pBCSK−, FDC in iron-depleted cation-adjusted MH broth, mode of triplicate
Procedure: as §1, §2

[3] = system: ADC-73 in DH10B Escherichia coli; assay: MIC by broth microdilution, ADC-73 in DH10B E. coli; format: cell-based; details: DH10B E. coli expressing ADC-73 (non-Adup) from pBCSK−, FDC in iron-depleted cation-adjusted MH broth, mode of triplicate
Procedure: as §1, §2

[4] = system: ADC-143 in DH10B Escherichia coli; assay: MIC by broth microdilution, ADC-143 in DH10B E. coli; format: cell-based; details: DH10B E. coli expressing ADC-143 (non-Adup) from pBCSK−, FDC in iron-depleted cation-adjusted MH broth, mode of triplicate
Procedure: as §1, §2

[5] = system: ADC-172 in DH10B Escherichia coli; assay: MIC by broth microdilution, ADC-172 in DH10B E. coli; format: cell-based; details: Escherichia coli; DH10B E. coli expressing ADC-172 (Adup) from pBCSK−; FDC in iron-depleted cation-adjusted MH broth; mode of triplicate; read-out: MIC
Procedure: as §1, §2

[6] = system: DH10B Escherichia coli pBCSK− no insert; assay: MIC by broth microdilution, DH10B E. coli with pBCSK− no insert; format: cell-based; details: DH10B E. coli with pBCSK− no insert (control strain), FDC in iron-depleted cation-adjusted MH broth
Procedure: as §1, §2

[7] = system: DH10B alone; assay: MIC by broth microdilution, DH10B alone; format: cell-based; details: Escherichia coli; DH10B alone (control strain); FDC in iron-depleted cation-adjusted MH broth
Procedure: as §1, §2

[8] = biological target: ADC-73 (Acinetobacter baumannii, UniProt A0A059ZDI2); assay: Competition kinetics with nitrocefin (Ki), ADC-73; format: biochemical; details: 3 min pre-incubation, Cheng-Prusoff corrected
Procedure: (§3) For inhibition kinetics, utilizing NCF as a colorimetric substrate of ADCs, the inhibition constant (Ki) of CAZ and FDC with ADCs was determined using competition kinetics as previously described ([5]). After a 3 min pre-incubation of the enzyme (2 nM) with increasing concentration of the inhibitor, measurements of the initial velocities were performed with the addition of 100–200 µM NCF (twofold of the experimentally determined KM value). To determine the average velocities (v0), data from three experiments were fit to the followingequation: […]
(§4) where vu represents the NCF uninhibited velocity and IC50 represents the inhibitor concentration that results in a 50% reduction of vu. The Ki value was corrected for the NCF affinity (KM values for each ADC) with the Cheng-Prusoff ([5]) equation: […]
(§5) The standard error for Ki values was generated by factoring in the larger of the proportional standard errors for the individual IC50 value and the KM -NCF value.

[9] = biological target: ADC-143 (Acinetobacter baumannii, UniProt Q6DRA1, Q144K, form not given); assay: Competition kinetics with nitrocefin (Ki), ADC-143; format: biochemical; details: 3 min pre-incubation, Cheng-Prusoff corrected
Procedure: as §3, §4, §5

[10] = biological target: T1, ADC-33 (Acinetobacter baumannii, UniProt A7Y407); assay: Competition kinetics with nitrocefin (Ki), ADC-33; format: biochemical; details: 3 min pre-incubation, Cheng-Prusoff corrected
Procedure: as §3, §4, §5

[11] = biological target: ADC-172 (Acinetobacter baumannii, UniProt A7Y407, N321K); assay: Competition kinetics with nitrocefin (Ki), ADC-172; format: biochemical; details: 3 min pre-incubation, Cheng-Prusoff corrected
Procedure: as §3, §4, §5

[12] = biological target: T1, ADC-33; assay: Timed electrospray ionization mass spectrometry of acylated adducts, ADC-33; format: binding; details: ADC-33, incubation 30 s–1 h; enzyme:substrate 1:25
Procedure: β-Lactamase (5 µg) was incubated with substrate at a molar ratio of 1:25 (FDC, CAZ, meropenem [MEM]) in sterile 10 mM PBS, pH 7.4, for a total reaction volume of 20 µL (t = 30 s, 1 min, 15 min, 30 min, 1 h, 2 h, and 24 h). Reactions were quenched with 1% acetonitrile and 0.1% formic acid. Samples were analyzed using Q-TOF Waters Synapt-G2-Si and a Waters Acquity ultrapressure liquid chromatography BEH C18 column (1.7 µm […]; 2.1 × 50 mm). MassLynx v.4.1 was used to deconvolute protein peaks. The tune settings for each data run were as follows: capillary voltage at 3.5 kV, sampling cone at 35, source offset at 35, source temperature 100°C, desolvation temperature 500°C, cone gas at 100 L/h, desolvation gas at 800 L/h, and nebulizer bar at 6.0. Mobile phase A was 0.1% formic acid-water. Mobile phase B was 0.1% formic acid-acetonitrile. The mass accuracy for this system is ±5 Da. Mass spectrometry experiments were performed once over a range of time points.

[13] = biological target: ADC-30 (Acinetobacter baumannii, UniProt A7XM81); assay: Thermal denaturation by circular dichroism, ADC-30; format: binding; details: ADC-30 12 µM, 1 mM antibiotic, PBS pH 7.4
Procedure: (§6) For thermal denaturation, protein samples were monitored for helical content by circular dichroism in the far-UV region at 210 and 220 nm using a Jasco J-815 spectrometer (Easton, MD) with a Peltier-effect temperature controller, as previously described ([41]). Enzyme concentrations were 12 µM in phosphate-buffered saline (PBS) pH 7.4. The thermodynamic stability of apoADC-30 and ADC-33, and with 1 mM FDC and CAZ, was determined from equilibrium unfolding curves. With the assumption of a reversible two-state transition, we determined the Tm at the midpoint of equilibrium folding. Thermal denaturation experiments were done in duplicate under the same conditions, with each data point representing the average of three successive scans, and the Tm values are consistent with ±1°C variation.

[14] = biological target: T1, ADC-33; assay: Thermal denaturation by circular dichroism, ADC-33; format: binding; details: ADC-33 12 µM, 1 mM antibiotic, PBS pH 7.4
Procedure: as §6

[15] = system: ADC variants in DH10B Escherichia coli; assay: MIC, statements across ADC variants in E. coli; format: cell-based
Procedure: as §1, §2

[16] = biological target: T1, ADC-33; details: hydrolysis by ADC-33; previously determined; cited from earlier work

## CC(C)(O/N=C(\C(=O)N[C@@H]1C(=O)N2C(C(=O)[O-])=C(C[n+]3ccccc3)CS[C@H]12)c1csc(N)n1)C(=O)O [CAZ, ceftazidime]
[1]
  MIC: 64 µg/mL (≈ 117 µM)
[2]
  MIC: 64 µg/mL (≈ 117 µM)
[3]
  MIC: 64 µg/mL (≈ 117 µM)
[4]
  MIC: 256 µg/mL (≈ 468 µM)
[5]
  MIC: 1020 µg/mL (≈ 1870 µM)
[6]
  MIC: 0.25 µg/mL (≈ 0.457 µM)
[7]
  MIC: 0.5 µg/mL (≈ 0.915 µM)
[8]
  Ki: 8.72 ± 0.74 µM
[9]
  Ki: 47.8 ± 3.34 µM
[10]
  Ki: 28.4 ± 2.09 µM
[11]
  Ki: 12.7 ± 1.45 µM
[12]
  formation of stable acyl-enzyme adduct: did not form a stable acyl-enzyme adduct
[13]
  change of Tm of the β-lactamase on addition of antibiotic: does not alter the Tm
[14]
  change of Tm of the β-lactamase on addition of antibiotic: does not alter the Tm
[15]
  MIC: ≥ 1020 µg/mL
[16]
  kcat: 3.71 s⁻¹
